Reference: the supplement of paper PMC10307832

Tests used:
Assay in all cases: relative viability (nuclei count vs DMSO), 5 days (fraction); higher = more cells survive
17-AAG + Palbociclib = compound: C=CCNC1=C2C[C@@H](C)C[C@H](OC)[C@H](O)[C@@H](C)/C=C(\C)[C@H](OC(N)=O)[C@@H](OC)/C=C\C=C(/C)C(=O)NC(=CC1=O)C2=O [17-AAG] + CC(=O)c1c(C)c2cnc(Nc3ccc(N4CCNCC4)cn3)nc2n(C2CCCC2)c1=O [Palbociclib] (partner 0.5 µM)
Outline: (§1)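 Relative viability equals treated-well nuclei counts divided by vehicle-well nuclei counts. Counts came from 4× images of lung cancer cell lines grown in 1536-well plates for 5 days after pin-tool dosing on the day after seeding. Dosing used one drug alone or a fixed anchor-drug dose plus five library-drug doses (not always all listed) in √10 steps, and values are medians of duplicate plates.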

17-AAG + Foretinib = compound: C=CCNC1=C2C[C@@H](C)C[C@H](OC)[C@H](O)[C@@H](C)/C=C(\C)[C@H](OC(N)=O)[C@@H](OC)/C=C\C=C(/C)C(=O)NC(=CC1=O)C2=O [17-AAG] + COc1cc2c(Oc3ccc(NC(=O)C4(C(=O)Nc5ccc(F)cc5)CC4)cc3F)ccnc2cc1OCCCN1CCOCC1 [Foretinib] (partner 0.25 µM)
Outline: as §1

17-AAG + Bortezomib = compound: C=CCNC1=C2C[C@@H](C)C[C@H](OC)[C@H](O)[C@@H](C)/C=C(\C)[C@H](OC(N)=O)[C@@H](OC)/C=C\C=C(/C)C(=O)NC(=CC1=O)C2=O [17-AAG] + CC(C)C[C@H](NC(=O)[C@H](Cc1ccccc1)NC(=O)c1cnccn1)B(O)O [Bortezomib] (partner 0.002 µM)
Outline: as §1

17-AAG + Pictilisib = compound: C=CCNC1=C2C[C@@H](C)C[C@H](OC)[C@H](O)[C@@H](C)/C=C(\C)[C@H](OC(N)=O)[C@@H](OC)/C=C\C=C(/C)C(=O)NC(=CC1=O)C2=O [17-AAG] + CS(=O)(=O)N1CCN(Cc2cc3nc(-c4cccc5[nH]ncc45)nc(N4CCOCC4)c3s2)CC1 [Pictilisib] (partner 1 µM)
Outline: as §1

Cell Line: 201T
- relative viability (17-AAG + Palbociclib; first compound 0.00128 µM): 0.364
- relative viability (17-AAG + Palbociclib; first compound 0.004048 µM): 0.351
- relative viability (17-AAG + Palbociclib; first compound 0.0128 µM): 0.353
- relative viability (17-AAG + Palbociclib; first compound 0.04048 µM): 0.372
- relative viability (17-AAG + Palbociclib; first compound 0.128 µM): 0.35
- relative viability (17-AAG + Foretinib; first compound 0.00128 µM): 1.11
- relative viability (17-AAG + Foretinib; first compound 0.004048 µM): 1.06
- relative viability (17-AAG + Foretinib; first compound 0.0128 µM): 0.503
- relative viability (17-AAG + Foretinib; first compound 0.04048 µM): 0.194
- relative viability (17-AAG + Foretinib; first compound 0.128 µM): 0.175
- relative viability (17-AAG + Bortezomib; first compound 0.00128 µM): 1.14
- relative viability (17-AAG + Bortezomib; first compound 0.004048 µM): 1.12
- relative viability (17-AAG + Bortezomib; first compound 0.0128 µM): 1.03
- relative viability (17-AAG + Bortezomib; first compound 0.04048 µM): 1.05
- relative viability (17-AAG + Bortezomib; first compound 0.128 µM): 0.649
- relative viability (17-AAG + Pictilisib; first compound 0.00128 µM): 0.679
- relative viability (17-AAG + Pictilisib; first compound 0.004048 µM): 0.667
- relative viability (17-AAG + Pictilisib; first compound 0.0128 µM): 0.663
- relative viability (17-AAG + Pictilisib; first compound 0.04048 µM): 0.546
- relative viability (17-AAG + Pictilisib; first compound 0.128 µM): 0.424

Cell Line: A-427
- relative viability (17-AAG + Palbociclib; first compound 0.00128 µM): 0.554
- relative viability (17-AAG + Palbociclib; first compound 0.004048 µM): 0.506
- relative viability (17-AAG + Palbociclib; first compound 0.0128 µM): 0.54
- relative viability (17-AAG + Palbociclib; first compound 0.04048 µM): 0.354
- relative viability (17-AAG + Palbociclib; first compound 0.128 µM): 0.291
- relative viability (17-AAG + Foretinib; first compound 0.00128 µM): 1.11
- relative viability (17-AAG + Foretinib; first compound 0.004048 µM): 0.983
- relative viability (17-AAG + Foretinib; first compound 0.0128 µM): 1.05
- relative viability (17-AAG + Foretinib; first compound 0.04048 µM): 1.2
- relative viability (17-AAG + Foretinib; first compound 0.128 µM): 0.847
- relative viability (17-AAG + Bortezomib; first compound 0.00128 µM): 1.01
- relative viability (17-AAG + Bortezomib; first compound 0.004048 µM): 1.05
- relative viability (17-AAG + Bortezomib; first compound 0.0128 µM): 0.965
- relative viability (17-AAG + Bortezomib; first compound 0.04048 µM): 0.921
- relative viability (17-AAG + Bortezomib; first compound 0.128 µM): 0.625
- relative viability (17-AAG + Pictilisib; first compound 0.00128 µM): 0.684
- relative viability (17-AAG + Pictilisib; first compound 0.004048 µM): 0.737
- relative viability (17-AAG + Pictilisib; first compound 0.0128 µM): 0.765
- relative viability (17-AAG + Pictilisib; first compound 0.04048 µM): 0.748
- relative viability (17-AAG + Pictilisib; first compound 0.128 µM): 0.286

Cell Line: Calu-6
- relative viability (17-AAG + Foretinib; first compound 0.00128 µM): 0.833
- relative viability (17-AAG + Foretinib; first compound 0.004048 µM): 0.899
- relative viability (17-AAG + Foretinib; first compound 0.0128 µM): 0.754
- relative viability (17-AAG + Foretinib; first compound 0.04048 µM): 0.249
- relative viability (17-AAG + Foretinib; first compound 0.128 µM): 0.121
- relative viability (17-AAG + Bortezomib; first compound 0.00128 µM): 1.06
- relative viability (17-AAG + Bortezomib; first compound 0.004048 µM): 0.92
- relative viability (17-AAG + Bortezomib; first compound 0.0128 µM): 0.896
- relative viability (17-AAG + Bortezomib; first compound 0.04048 µM): 0.317
- relative viability (17-AAG + Bortezomib; first compound 0.128 µM): 0.183
- relative viability (17-AAG + Pictilisib; first compound 0.00128 µM): 0.913
- relative viability (17-AAG + Pictilisib; first compound 0.004048 µM): 0.867
- relative viability (17-AAG + Pictilisib; first compound 0.0128 µM): 0.762
- relative viability (17-AAG + Pictilisib; first compound 0.04048 µM): 0.199
- relative viability (17-AAG + Pictilisib; first compound 0.128 µM): 0.133

Cell Line: HCC-44
- relative viability (17-AAG + Palbociclib; first compound 0.00128 µM): 0.944
- relative viability (17-AAG + Palbociclib; first compound 0.004048 µM): 1.01
- relative viability (17-AAG + Palbociclib; first compound 0.0128 µM): 0.991
- relative viability (17-AAG + Palbociclib; first compound 0.04048 µM): 0.978
- relative viability (17-AAG + Palbociclib; first compound 0.128 µM): 0.914
- relative viability (17-AAG + Bortezomib; first compound 0.00128 µM): 0.865
- relative viability (17-AAG + Bortezomib; first compound 0.004048 µM): 0.854
- relative viability (17-AAG + Bortezomib; first compound 0.0128 µM): 0.903
- relative viability (17-AAG + Bortezomib; first compound 0.04048 µM): 0.466
- relative viability (17-AAG + Bortezomib; first compound 0.128 µM): 0.142
- relative viability (17-AAG + Pictilisib; first compound 0.00128 µM): 0.623
- relative viability (17-AAG + Pictilisib; first compound 0.004048 µM): 0.564
- relative viability (17-AAG + Pictilisib; first compound 0.0128 µM): 0.319
- relative viability (17-AAG + Pictilisib; first compound 0.04048 µM): 0.152
- relative viability (17-AAG + Pictilisib; first compound 0.128 µM): 0.113
